{"source": "the supplement of paper PMC10307832", "assay_in_all_cases": "relative viability (nuclei count vs DMSO), 5 days (fraction); higher = more cells survive", "key": {"201T": {"test_system": "201T", "outline": "(§1)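 One day after seeding in 1536-well plates, lung cancer cell lines were dosed by pin tool. Dosing was either single-drug or a fixed anchor-drug dose plus five library-drug doses (not always all listed) in √10 steps. After 5 days, nuclei were stained in one fix-and-stain step and counted on 4× images, and relative viability is the nuclei count of treated wells over that of vehicle wells, given as the median of duplicate plates.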"}, "NCI-H1650": {"test_system": "NCI-H1650", "outline": "as §1"}, "NCI-H460": {"test_system": "NCI-H460", "outline": "as §1"}, "CAL-12T": {"test_system": "CAL-12T", "outline": "as §1"}, "H3255": {"test_system": "H3255", "outline": "as §1"}, "NCI-H1651": {"test_system": "NCI-H1651", "outline": "as §1"}, "NCI-H1792": {"test_system": "NCI-H1792", "outline": "as §1"}, "NCI-H1915": {"test_system": "NCI-H1915", "outline": "as §1"}, "NCI-H650": {"test_system": "NCI-H650", "outline": "as §1"}, "NCI-H1944": {"test_system": "NCI-H1944", "outline": "as §1"}, "BEN": {"test_system": "BEN", "outline": "as §1"}, "ABC-1": {"test_system": "ABC-1", "outline": "as §1"}, "NCI-H2023": {"test_system": "NCI-H2023", "outline": "as §1"}, "NCI-H520": {"test_system": "NCI-H520", "outline": "as §1"}, "NCI-H661": {"test_system": "NCI-H661", "outline": "as §1"}, "LC-2-ad": {"test_system": "LC-2-ad", "outline": "as §1"}, "PC-3 [JPC-3]": {"test_system": "PC-3 [JPC-3]", "outline": "as §1"}, "NCI-H727": {"test_system": "NCI-H727", "outline": "as §1"}, "NCI-H2087": {"test_system": "NCI-H2087", "outline": "as §1"}, "NCI-H596": {"test_system": "NCI-H596", "outline": "as §1"}, "LCLC-97TM1": {"test_system": "LCLC-97TM1", "outline": "as §1"}, "A-427": {"test_system": "A-427", "outline": "as §1"}}}
{"smiles": "O=C(O)c1ccc(-c2c[nH]c3ncc(-c4ccccc4)cc23)cc1C1CCCC1", "note": "+ CS(=O)(=O)CCNCc1ccc(-c2ccc3ncnc(Nc4ccc(OCc5cccc(F)c5)c(Cl)c4)c3c2)o1 [Lapatinib] (partner 2 µM)", "values": [{"measurement": "relative viability", "setting": "201T; first compound 0.04 µM", "result": 0.966}, {"measurement": "relative viability", "setting": "201T; first compound 0.1265 µM", "result": 1.06}, {"measurement": "relative viability", "setting": "201T; first compound 0.4 µM", "result": 1.01}, {"measurement": "relative viability", "setting": "201T; first compound 1.265 µM", "result": 0.988}, {"measurement": "relative viability", "setting": "NCI-H1650; first compound 0.04 µM", "result": 0.731}, {"measurement": "relative viability", "setting": "NCI-H1650; first compound 0.1265 µM", "result": 0.758}, {"measurement": "relative viability", "setting": "NCI-H1650; first compound 0.4 µM", "result": 0.725}, {"measurement": "relative viability", "setting": "NCI-H1650; first compound 1.265 µM", "result": 0.529}, {"measurement": "relative viability", "setting": "NCI-H460; first compound 0.04 µM", "result": 0.897}, {"measurement": "relative viability", "setting": "NCI-H460; first compound 0.1265 µM", "result": 1.03}, {"measurement": "relative viability", "setting": "NCI-H460; first compound 0.4 µM", "result": 0.801}, {"measurement": "relative viability", "setting": "NCI-H460; first compound 1.265 µM", "result": 0.782}, {"measurement": "relative viability", "setting": "CAL-12T; first compound 0.04 µM", "result": 0.788}, {"measurement": "relative viability", "setting": "CAL-12T; first compound 0.1265 µM", "result": 0.908}, {"measurement": "relative viability", "setting": "CAL-12T; first compound 0.4 µM", "result": 0.705}, {"measurement": "relative viability", "setting": "CAL-12T; first compound 1.265 µM", "result": 0.423}, {"measurement": "relative viability", "setting": "H3255; first compound 0.04 µM", "result": 0.24}, {"measurement": "relative viability", "setting": "H3255; first compound 0.1265 µM", "result": 0.231}, {"measurement": "relative viability", "setting": "H3255; first compound 0.4 µM", "result": 0.26}, {"measurement": "relative viability", "setting": "H3255; first compound 1.265 µM", "result": 0.275}, {"measurement": "relative viability", "setting": "NCI-H1651; first compound 0.04 µM", "result": 0.856}, {"measurement": "relative viability", "setting": "NCI-H1651; first compound 0.1265 µM", "result": 0.867}, {"measurement": "relative viability", "setting": "NCI-H1651; first compound 0.4 µM", "result": 0.826}, {"measurement": "relative viability", "setting": "NCI-H1651; first compound 1.265 µM", "result": 0.472}, {"measurement": "relative viability", "setting": "NCI-H1792; first compound 0.04 µM", "result": 0.77}, {"measurement": "relative viability", "setting": "NCI-H1792; first compound 0.1265 µM", "result": 0.942}, {"measurement": "relative viability", "setting": "NCI-H1792; first compound 0.4 µM", "result": 0.953}, {"measurement": "relative viability", "setting": "NCI-H1792; first compound 1.265 µM", "result": 0.847}, {"measurement": "relative viability", "setting": "NCI-H1915; first compound 0.04 µM", "result": 1.05}, {"measurement": "relative viability", "setting": "NCI-H1915; first compound 0.1265 µM", "result": 1.03}, {"measurement": "relative viability", "setting": "NCI-H1915; first compound 0.4 µM", "result": 0.972}, {"measurement": "relative viability", "setting": "NCI-H1915; first compound 1.265 µM", "result": 0.743}, {"measurement": "relative viability", "setting": "NCI-H650; first compound 0.04 µM", "result": 0.712}, {"measurement": "relative viability", "setting": "NCI-H650; first compound 0.1265 µM", "result": 1.26}, {"measurement": "relative viability", "setting": "NCI-H650; first compound 0.4 µM", "result": 0.639}, {"measurement": "relative viability", "setting": "NCI-H650; first compound 1.265 µM", "result": 0.561}, {"measurement": "relative viability", "setting": "NCI-H1944; first compound 0.04 µM", "result": 0.695}, {"measurement": "relative viability", "setting": "NCI-H1944; first compound 0.1265 µM", "result": 1}, {"measurement": "relative viability", "setting": "NCI-H1944; first compound 0.4 µM", "result": 0.623}, {"measurement": "relative viability", "setting": "NCI-H1944; first compound 1.265 µM", "result": 0.736}, {"measurement": "relative viability", "setting": "BEN; first compound 0.04 µM", "result": 0.717}, {"measurement": "relative viability", "setting": "BEN; first compound 0.1265 µM", "result": 0.611}, {"measurement": "relative viability", "setting": "BEN; first compound 0.4 µM", "result": 0.815}, {"measurement": "relative viability", "setting": "BEN; first compound 1.265 µM", "result": 0.666}, {"measurement": "relative viability", "setting": "ABC-1; first compound 0.04 µM", "result": 1.05}, {"measurement": "relative viability", "setting": "ABC-1; first compound 0.1265 µM", "result": 1.08}, {"measurement": "relative viability", "setting": "ABC-1; first compound 0.4 µM", "result": 1.09}, {"measurement": "relative viability", "setting": "ABC-1; first compound 1.265 µM", "result": 1.52}, {"measurement": "relative viability", "setting": "NCI-H2023; first compound 0.04 µM", "result": 0.915}, {"measurement": "relative viability", "setting": "NCI-H2023; first compound 0.1265 µM", "result": 0.938}, {"measurement": "relative viability", "setting": "NCI-H2023; first compound 0.4 µM", "result": 0.779}, {"measurement": "relative viability", "setting": "NCI-H2023; first compound 1.265 µM", "result": 0.511}, {"measurement": "relative viability", "setting": "NCI-H520; first compound 0.04 µM", "result": 1.01}, {"measurement": "relative viability", "setting": "NCI-H520; first compound 0.1265 µM", "result": 0.858}, {"measurement": "relative viability", "setting": "NCI-H520; first compound 0.4 µM", "result": 0.847}, {"measurement": "relative viability", "setting": "NCI-H520; first compound 1.265 µM", "result": 0.604}, {"measurement": "relative viability", "setting": "NCI-H661; first compound 0.04 µM", "result": 0.455}, {"measurement": "relative viability", "setting": "NCI-H661; first compound 0.1265 µM", "result": 0.633}, {"measurement": "relative viability", "setting": "NCI-H661; first compound 0.4 µM", "result": 0.515}, {"measurement": "relative viability", "setting": "NCI-H661; first compound 1.265 µM", "result": 0.458}, {"measurement": "relative viability", "setting": "LC-2-ad; first compound 0.04 µM", "result": 1}, {"measurement": "relative viability", "setting": "LC-2-ad; first compound 0.1265 µM", "result": 1.02}, {"measurement": "relative viability", "setting": "LC-2-ad; first compound 0.4 µM", "result": 0.904}, {"measurement": "relative viability", "setting": "LC-2-ad; first compound 1.265 µM", "result": 0.803}, {"measurement": "relative viability", "setting": "PC-3 [JPC-3]; first compound 0.04 µM", "result": 0.51}, {"measurement": "relative viability", "setting": "PC-3 [JPC-3]; first compound 0.1265 µM", "result": 0.489}, {"measurement": "relative viability", "setting": "PC-3 [JPC-3]; first compound 0.4 µM", "result": 0.466}, {"measurement": "relative viability", "setting": "PC-3 [JPC-3]; first compound 1.265 µM", "result": 0.459}, {"measurement": "relative viability", "setting": "NCI-H727; first compound 0.04 µM", "result": 0.955}, {"measurement": "relative viability", "setting": "NCI-H727; first compound 0.1265 µM", "result": 1}, {"measurement": "relative viability", "setting": "NCI-H727; first compound 0.4 µM", "result": 0.876}, {"measurement": "relative viability", "setting": "NCI-H727; first compound 1.265 µM", "result": 1.16}, {"measurement": "relative viability", "setting": "NCI-H2087; first compound 0.04 µM", "result": 1.01}, {"measurement": "relative viability", "setting": "NCI-H2087; first compound 0.1265 µM", "result": 1.27}, {"measurement": "relative viability", "setting": "NCI-H2087; first compound 0.4 µM", "result": 1.02}, {"measurement": "relative viability", "setting": "NCI-H2087; first compound 1.265 µM", "result": 1.02}, {"measurement": "relative viability", "setting": "NCI-H596; first compound 0.04 µM", "result": 1.1}, {"measurement": "relative viability", "setting": "NCI-H596; first compound 0.1265 µM", "result": 1.02}, {"measurement": "relative viability", "setting": "NCI-H596; first compound 0.4 µM", "result": 0.979}, {"measurement": "relative viability", "setting": "NCI-H596; first compound 1.265 µM", "result": 1.03}, {"measurement": "relative viability", "setting": "LCLC-97TM1; first compound 0.04 µM", "result": 1.34}, {"measurement": "relative viability", "setting": "LCLC-97TM1; first compound 0.1265 µM", "result": 1.06}, {"measurement": "relative viability", "setting": "LCLC-97TM1; first compound 0.4 µM", "result": 0.922}, {"measurement": "relative viability", "setting": "LCLC-97TM1; first compound 1.265 µM", "result": 0.717}, {"measurement": "relative viability", "setting": "A-427; first compound 0.04 µM", "result": 0.965}, {"measurement": "relative viability", "setting": "A-427; first compound 0.1265 µM", "result": 1.06}, {"measurement": "relative viability", "setting": "A-427; first compound 0.4 µM", "result": 0.986}, {"measurement": "relative viability", "setting": "A-427; first compound 1.265 µM", "result": 0.935}]}
